Entries after “also recorded” stand apart in the source; their conditions may differ.
Columns and labels:
[1] = tested on: peptide-pulsed C1R-A33 cells; experiment: IFN-gamma ELISPOT assay of peptide-induced CTLs (HLA-A*3303); assay type: cell-based, human; conditions: CTLs induced from HLA-A*3303-positive donors, peptide-pulsed C1R-A33 vs control
From the text: Monocyte-derived dendritic cells (DCs) were used as the antigen-presenting cell to induce a cytotoxic T lymphocyte (CTL) response against peptides presented on human leukocyte antigens (HLAs). As described in the other sections, DCs were generated in vitro (Nakahara S et al., Cancer Res 2003, 63(14): 4112-8). Specifically, peripheral-blood mononuclear cells isolated from healthy volunteers (HLA-A*3303-positive) with the Ficoll-Paque plus solution (Pharmacia) were separated by attaching to plastic tissue culture dishes (Becton Dickinson) and concentrated as a monocyte fraction. The monocyte-concentrated population was cultured in the presence of 1000 IU/ml granulocyte macrophage colony-stimulating factor (R&D System) and 1000 IU/ml interleukin(IL)-4 (R&D System) in an AIM-V medium (Invitrogen) containing 2% heat-inactivated autologous serum (AS). After seven days of culturing, the cytokine-induced DCs were pulsed with 20 micro-g/ml each of the synthesized peptides in an AIM-V medium at 37 degrees C. for three hours in the presence of 3 micro-g/ml beta 2-microglobulin. The generated cells appeared to express on their cell surface DC-associated molecules such as CD80, CD83, CD86 and HLA class II (data not shown). Next, these peptide-pulsed DCs were inactivated by X-ray irradiation (20 Gy), and mixed in a 1:20 ratio with autologous CD8^+ T cells obtained by positive selection using the CD8 Positive Isolation Kit (Dynal). These culture products were seeded in a 48-well plate (Corning). Each well was made to contain 1.5×10^4 peptide-pulsed DCs, 3×10^5 CD8^+ T cells and 10 ng/ml IL-7 (R&D System) in 0.5 ml of the AIM-V/2% AS medium. Three days later, these culture products were added with a final concentration of 20 IU/ml IL-2 (CHIRON). On day 7 and day 14, T cells were further stimulated with peptide-pulsed autologous DCs. The DCs were prepared every time by the same method as above. On day 21, after the third peptide stimulation, CTLs were examined against the peptide-pulsed CIR-A33 cell by a human interferon (IFN)-gamma enzyme-linked immunospot (ELISPOT) assay (Tanaka H et al., Br J Cancer 2001, 84(1): 94-9; Umano Y et al., Br J Cancer 2001, 84(8): 1052-7; Uchida N et al., Clin Cancer Res 2004, 10(24): 8577-86; Suda T et al., Cancer Sci 2006, 97(5): 411-9; Watanabe T et al., Cancer Sci 2005, 96(8): 498-506).
(§1) Specifically, peptide-pulsed C1R-A33 (1×10^4 cells/well) was prepared as the stimulator cell. The induced CTLs, i.e., CTL lines and CTL clones, were used as the responder cell. The IFN-gamma ELISPOT assay and IFN-gamma ELISA were performed according to the manufacturer's manual.

peptide-pulsed C1R-A33 = experiment: IFN-gamma ELISA of CTL lines and CTL clones (HLA-A*3303); assay type: cell-based, human
Experimental: CTLs were propagated in culture using methods similar to those disclosed by Riddell et al. (Walter E A et al., N Engl J Med 1995, 333(16): 1038-44; Riddell S R et al., Nat Med 1996, 2(2): 216-23). The CTLs were co-cultured in a total of 25 ml AIM-V medium containing 5% AS (AIM-V/5% AS) and 40 ng/ml anti-CD3 antibody with two types of Mitomycin C-treated human B lymphoblastoid cell lines at 5×10^6 cells/flask. One day after beginning of the culturing, 120 IU/ml IL-2 was added to the culture. On days 5, 8 and 11, a fresh AIM-V/5% AS medium containing 30 IU/ml IL-2 was added to the culture (Tanaka H et al., Br J Cancer 2001, 84(1): 94-9; Umano Y et al., Br J Cancer 2001, 84(8): 1052-7; Uchida N et al., Clin Cancer Res 2004, 10(24): 8577-86; Suda T et al., Cancer Sci 2006, 97(5): 411-9; Watanabe T et al., Cancer Sci 2005, 96(8): 498-506).
Dilution of CTLs was carried out to make 0.3, 1 and 3 cells/well in 96 round-bottomed microtiter plates (Nalge Nunc International). The CTLs were co-cultured with two types of Mitomycin C-treated human B lymphoblastoid cell lines at 1×10^4 cells/well in a total of 150 micro-l/well AIM-V/5% AS medium with 30 ng/ml anti-CD3 antibody and 125 IU/ml IL-2. Ten days later, IL-2 was added to the medium at 50 micro-l/well to reach a final concentration of 125 IU/ml. On day 14, the CTL activity was tested, and the CTL clones were propagated using the same method as described above (Uchida N et al., Clin Cancer Res 2004, 10(24): 8577-86; Suda T et al., Cancer Sci 2006, 97(5): 411-9; Watanabe T et al., Cancer Sci 2005, 96(8): 498-506).
as §1

[2] = tested on: COS7 cells transfected with CDCA1 and HLA-A*3303; experiment: Specific CTL activity against target cells expressing CDCA1 and HLA-A*3303; assay type: cell-based, African green monkey; conditions: listed as CDCA1-A33-9-43
From the text: A cDNA encoding the open-reading frame of a target gene or HLA-A*3303 was amplified by PCR. The PCR-amplified product was cloned into an expression vector. Either or both of the target gene-expressing vector and the HLA-A*3303-expressing vector were transfected into COS7, which is a cell line negative for the target gene and HLA, using Lipofectamine 2000 (Invitrogen) following the manufacturer's recommended protocol. Two days after transfection, the transfected cells were harvested using versene (Invitrogen), and used as the target cell for CTL activity assay (5×10^4 cells/well).
The CTL clone established against CDCA1-A33-9-43 (SEQ ID NO: 27) was investigated for its ability to recognize target cells expressing CDCA1 and the HLA-A*3303 molecule. COS7 cells transfected with both full-length CDCA1 and the HLA-A*3303 gene (a specific model of target cells expressing CDCA1 and the HLA-A*3303 gene) were prepared as the target cell. COS7 cells transfected with either full-length CDCA1 or HLA-A*3303 were prepared as the control.

With “EVLHMIYMR (a peptide derived from CDCA1) [SEQ ID NO: 27]” the “peptide-specific CTL activity (IFN-gamma production)” value [1] was “potent IFN-gamma production”, the “IFN-gamma production of CTL clones” value (peptide-pulsed C1R-A33; CTL clones by limiting dilution, peptide-pulsed C1R-A33, listed as CDCA1-A33-9-43) was “Potent IFN-gamma production” and the “IFN-gamma production of CTL lines” value (peptide-pulsed C1R-A33; CTL lines, peptide-pulsed vs non-pulsed target cells, HLA-A*3303) was “potent IFN-gamma production”. For the same sequence, the “specific CTL activity of CTL clone” value ([2]; COS7 cells transfected with both CDCA1 and HLA-A*3303) was “specific CTL activity; also recorded: potent CTL activity” and the “specific CTL activity of CTL clone against control cells” value ([2]; COS7 cells transfected with either full-length CDCA1 or HLA-A*3303) was “a significant specific CTL activity was not shown; also recorded: a significant specific CTL activity was not detected”.
